US11851431B2, “Tricyclic Janus kinase 1 inhibitors, and compositions and methods thereof” (LYNK PHARMACEUTICALS CO. LTD., priority 2018, dated 2023)

Columns and labels:
[1] = target: T1, JAK1 (Homo sapiens, UniProt P23458); test: JAK biochemical microfluidic assay (Caliper EZ Reader), JAK1; settings: 1 mM ATP; head prints (5 nM)
T1 construct: purchased Carna Biosciences
Experimental: (§1) JAK activity was determined in the reaction buffer 50 mM HEPES, 0.01% Brij35, 10 mM MgCl2, 2 mM DTT by a microfluidic assay. The phosphorylation of a FAM labeled peptide substrate was monitored in the Caliper EZ Reader II (Perkin Elmer). The assay condition for each batch of enzyme (Carna Biosciences) was optimized to obtain 10% conversion rate of peptide substrate.
(§2) The test compounds were dissolved in DMSO to a stock concentration of 10 mM. Three-fold serially diluted compounds with top concentration of 5 μM were pre-incubated with JAK1, JAK2 or TYK2 for 10 min at ambient temperature. The final DMSO concentration of assay mixture was 1%. […] The reaction was stopped by adding 50 mM EDTA.
(§3) The percent inhibition was calculated by the following formula. % Inhibition=(Conversionmax−Conversionsample)/(Conversionmax−Conversionmin)*100 Conversionmax means the conversion rate in the positive well without addition of compound • […] means the conversion rate in the well without addition of enzyme • Conversionsample means the conversion rate of test compounds
(§4) The dose-response (percent inhibition) curve was plotted and IC50 values were determined by GraphPad software.

[2] = target: T2, JAK2 (Homo sapiens, UniProt O60674); test: JAK biochemical microfluidic assay (Caliper EZ Reader), JAK2; settings: 1 mM ATP; head prints (0.25 nM)
T2 construct: purchased Carna Biosciences
Experimental: as §1, §2, §3, §4

T2 sequence (O60674 whole entry): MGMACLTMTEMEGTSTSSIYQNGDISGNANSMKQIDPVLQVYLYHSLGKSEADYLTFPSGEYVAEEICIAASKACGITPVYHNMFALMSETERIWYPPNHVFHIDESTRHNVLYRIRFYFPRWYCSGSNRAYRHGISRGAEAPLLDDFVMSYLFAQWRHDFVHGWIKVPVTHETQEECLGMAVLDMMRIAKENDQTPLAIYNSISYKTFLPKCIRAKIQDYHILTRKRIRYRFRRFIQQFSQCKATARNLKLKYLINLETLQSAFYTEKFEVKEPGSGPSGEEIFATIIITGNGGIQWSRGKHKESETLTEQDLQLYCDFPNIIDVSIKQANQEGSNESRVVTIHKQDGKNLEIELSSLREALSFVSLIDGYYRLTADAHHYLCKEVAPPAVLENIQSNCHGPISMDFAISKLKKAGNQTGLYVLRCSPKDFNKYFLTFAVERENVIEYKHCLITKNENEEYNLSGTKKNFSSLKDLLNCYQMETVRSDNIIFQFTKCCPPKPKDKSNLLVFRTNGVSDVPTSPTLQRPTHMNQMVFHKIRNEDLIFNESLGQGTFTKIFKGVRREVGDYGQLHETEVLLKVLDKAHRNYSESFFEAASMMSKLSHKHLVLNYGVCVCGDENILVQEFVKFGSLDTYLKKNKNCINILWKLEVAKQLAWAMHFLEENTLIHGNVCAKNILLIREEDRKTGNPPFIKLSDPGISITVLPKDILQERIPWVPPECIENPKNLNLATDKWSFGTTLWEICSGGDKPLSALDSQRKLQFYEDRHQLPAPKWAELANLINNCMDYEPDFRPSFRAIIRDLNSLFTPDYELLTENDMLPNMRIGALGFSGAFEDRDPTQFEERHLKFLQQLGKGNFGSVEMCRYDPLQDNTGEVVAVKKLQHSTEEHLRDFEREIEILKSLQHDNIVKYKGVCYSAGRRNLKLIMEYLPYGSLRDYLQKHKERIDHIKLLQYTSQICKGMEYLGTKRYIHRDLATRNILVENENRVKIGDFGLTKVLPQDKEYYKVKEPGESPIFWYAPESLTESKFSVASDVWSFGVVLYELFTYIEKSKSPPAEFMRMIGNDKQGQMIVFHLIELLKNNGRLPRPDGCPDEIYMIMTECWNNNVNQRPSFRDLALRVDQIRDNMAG
T1 sequence (P23458 whole entry): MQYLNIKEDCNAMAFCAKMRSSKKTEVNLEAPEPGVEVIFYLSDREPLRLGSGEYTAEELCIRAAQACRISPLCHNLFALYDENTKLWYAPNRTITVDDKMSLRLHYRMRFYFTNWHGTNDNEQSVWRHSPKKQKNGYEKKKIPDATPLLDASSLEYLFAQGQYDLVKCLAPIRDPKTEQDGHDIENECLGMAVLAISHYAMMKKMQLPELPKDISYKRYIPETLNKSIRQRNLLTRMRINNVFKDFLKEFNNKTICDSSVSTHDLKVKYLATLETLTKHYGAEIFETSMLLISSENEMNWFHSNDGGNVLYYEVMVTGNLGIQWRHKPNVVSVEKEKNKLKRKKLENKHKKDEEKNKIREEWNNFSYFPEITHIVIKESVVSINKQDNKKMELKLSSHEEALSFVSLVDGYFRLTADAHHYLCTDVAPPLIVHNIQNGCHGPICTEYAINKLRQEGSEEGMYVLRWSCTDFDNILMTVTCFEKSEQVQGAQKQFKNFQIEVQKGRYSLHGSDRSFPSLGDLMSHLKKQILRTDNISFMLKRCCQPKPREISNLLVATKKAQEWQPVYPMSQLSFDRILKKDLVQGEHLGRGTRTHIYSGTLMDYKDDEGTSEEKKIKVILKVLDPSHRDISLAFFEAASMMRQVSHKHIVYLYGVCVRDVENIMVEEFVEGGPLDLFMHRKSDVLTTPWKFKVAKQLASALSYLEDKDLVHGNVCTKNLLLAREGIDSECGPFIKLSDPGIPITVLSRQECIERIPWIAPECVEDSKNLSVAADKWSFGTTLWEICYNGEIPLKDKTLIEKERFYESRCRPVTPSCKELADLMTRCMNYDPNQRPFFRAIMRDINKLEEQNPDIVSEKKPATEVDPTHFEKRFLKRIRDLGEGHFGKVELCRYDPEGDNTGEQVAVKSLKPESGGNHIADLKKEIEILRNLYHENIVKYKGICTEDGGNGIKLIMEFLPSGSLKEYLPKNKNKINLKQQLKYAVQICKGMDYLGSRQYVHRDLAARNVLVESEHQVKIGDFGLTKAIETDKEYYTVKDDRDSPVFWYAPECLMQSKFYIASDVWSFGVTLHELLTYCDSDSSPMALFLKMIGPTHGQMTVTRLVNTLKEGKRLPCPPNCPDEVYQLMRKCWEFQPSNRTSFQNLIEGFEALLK

Structure (SMILES) | IC50 [1] | IC50 [2]
NC12CC(n3cnc4cnc5[nH]ccc5c43)(C1)C2 [Example 1j, 3-(Imidazo[4,5-d]pyrrolo[2,3-b]pyridin-1(6H)-yl)bicyclo[1.1.1]pentan-1-amine 2,2,2-trifluoroacetate] | 278 nM | 
N[C@H]1C[C@@H](n2cnc3cnc4[nH]ccc4c32)C1 [Example 2e, Cis-3-(imidazo[4,5-d]pyrrolo[2,3-b]pyridin-1(6H)-yl)cyclobutanamine 2,2,2-trifluoroacetate] | 2570 nM | > 5000 nM
O=C(NC12CC(n3cnc4cnc5[nH]ccc5c43)(C1)C2)c1ccc(Cl)cc1 [Example 15, 4-Chloro-N-(3-(imidazo[4,5-d]pyrrolo[2,3-b]pyridin-1(6H)-yl)bicyclo[1.1.1]pentan-1-yl)benzamide] | 82.6 nM | 
COC1CN(S(=O)(=O)NC23CC(n4cnc5cnc6[nH]ccc6c54)(C2)C3)C1 [Example 21, N-(3-(imidazo[4,5-d]pyrrolo[2,3-b]pyridin-1(6H)-yl)bicyclo[1.1.1]pentan-1-yl)-3-methoxyazetidine-1-sulfonamide] | 14.2 nM | 326 nM
CCN(C)S(=O)(=O)NC12CC(n3cnc4cnc5[nH]ccc5c43)(C1)C2 [Example 25, N-(3-(imidazo[4,5-d]pyrrolo[2,3-b]pyridin-1(6H)-yl)bicyclo[1.1.1]pentan-1-yl)-N′-methyl-N′-ethyl-1-sulfonamide] | 26.1 nM | 
COCCCS(=O)(=O)NC12CC(n3cnc4cnc5[nH]ccc5c43)(C1)C2 [Example 26, N-(3-(Imidazo[4,5-d]pyrrolo[2,3-b]pyridin-1(6H)-yl)bicyclo[1.1.1]pentan-1-yl)-3-methoxypropane-1-sulfonamide] | 26.2 nM | 849 nM
Cn1cc(S(=O)(=O)NC23CC(n4cnc5cnc6[nH]ccc6c54)(C2)C3)cn1 [Example 29, N-(3-(imidazo[4,5-d]pyrrolo[2,3-b]pyridin-1(6H)-yl)bicyclo[1.1.1]pentan-1-yl)-1-methyl-1H-pyrazole-4-sulfonamide] | 90.5 nM | 992 nM
N#CCS(=O)(=O)NC12CC(n3cnc4cnc5[nH]ccc5c43)(C1)C2 [Example 33, 1-Cyano-N-(3-(imidazo[4,5-d]pyrrolo[2,3-b]pyridin-1(6H)-yl)bicyclo[1.1.1]pentan-1-yl)methanesulfonamide] | 14.4 nM | 146 nM
N#CC1CCN(C(=O)NC23CC(n4cnc5cnc6[nH]ccc6c54)(C2)C3)C1 (centres unmarked) [Example 39, 3-Cyano-N-(3-(imidazo[4,5-d]pyrrolo[2,3-b]pyridin-1(6H)-yl)bicyclo[1.1.1]pentan-1-yl)pyrrolidine-1-carboxamide] | 68.7 nM | 526 nM
CNS(=O)(=O)C[C@H]1C[C@@H](n2cnc3cnc4[nH]ccc4c32)C1 [Example 44, 1-(Cis-3-(imidazo[4,5-d]pyrrolo[2,3-b]pyridin-1(6H)-yl)cyclobutyl)-N-methylmethanesulfonamide] | 159 nM | 604 nM
N#CC1CN(S(=O)(=O)C[C@H]2C[C@@H](n3cnc4cnc5[nH]ccc5c43)C2)C1 [Example 45, 1-(((Cis-3-(imidazo[4,5-d]pyrrolo[2,3-b]pyridin-1(6H)-yl)cyclobutyl)methyl)sulfonyl) azetidine-3-carbonitrile] | 15.7 nM | 170 nM
CCCS(=O)(=O)NC12CC(n3c([C@@H](C)O)nc4cnc5[nH]ccc5c43)(C1)C2 [Example 47, (R)—N-(3-(2-(1-hydroxyethyl)imidazo[4,5-d]pyrrolo[2,3-b]pyridin-1(6H)-yl)bicyclo[1.1.1]pentan-1-yl)propane-1-sulfonamide] | 48.7 nM | 1110 nM
CCCS(=O)(=O)NC12CC(n3c(C)nc4cnc5[nH]ccc5c43)(C1)C2 [Example 48, N-(3-(2-methylimidazo[4,5-d]pyrrolo[2,3-b]pyridin-1(6H)-yl)bicyclo[1.1.1]pentan-1-yl)propane-1-sulfonamide] | 13 nM | 244 nM
CCCS(=O)(=O)NC12CC(N(C)c3ncnc4[nH]ccc34)(C1)C2 [Example 49, N-(3-(Methyl(7H-pyrrolo[2,3-d]pyrimidin-4-yl)amino)bicyclo[1.1.1]pentan-1-yl)propane-1-sulfonamide] | > 5000 nM | > 5000 nM

Continued, values first:

IC50 [1] | IC50 [2] | Structure (SMILES)
47.4 nM | 328 nM | CC(C)CC(=O)NC12CC(n3cnc4cnc5[nH]ccc5c43)(C1)C2 [Example 8, N-(3-(Imidazo[4,5-d]pyrrolo[2,3-b]pyridin-1(6H)-yl)bicyclo[1.1.1]pentan-1-yl)-3-methylbutanamide]
58.7 nM | 441 nM | CCCC(=O)NC12CC(n3cnc4cnc5[nH]ccc5c43)(C1)C2 [Example 9, N-(3-(imidazo[4,5-d]pyrrolo[2,3-b]pyridin-1(6H)-yl)bicyclo[1.1.1]pentan-1-yl)butyramide]
165 nM | 868 nM | CC(C)COC(=O)NC12CC(n3cnc4cnc5[nH]ccc5c43)(C1)C2 [Example 10, Isobutyl (3-(imidazo[4,5-d]pyrrolo[2,3-b]pyridin-1(6H)-yl)bicyclo[1.1.1]pentan-1-yl)carbamate]
11.7 nM | 166 nM | N#CCC(=O)NC12CC(n3cnc4cnc5[nH]ccc5c43)(C1)C2 [Example 11, 2-Cyano-N-(3-(imidazo[4,5-d]pyrrolo[2,3-b]pyridin-1(6H)-yl)bicyclo[1.1.1]pentan-1-yl)acetamide]
35.5 nM |  | O=C(NC12CC(n3cnc4cnc5[nH]ccc5c43)(C1)C2)C1CC1 [Example 12, N-(3-(Imidazo[4,5-d]pyrrolo[2,3-b]pyridin-1(6H)-yl)bicyclo[1.1.1]pentan-1-yl)cyclopropanecarboxamide]
64 nM |  | CC(C)OC(=O)NC12CC(n3cnc4cnc5[nH]ccc5c43)(C1)C2 [Example 16, Isopropyl (3-(imidazo[4,5-d]pyrrolo[2,3-b]pyridin-1(6H)-yl)bicyclo[1.1.1]pentan-1-yl)carbamate]
51.3 nM | 578 nM | O=C(NC12CC(n3cnc4cnc5[nH]ccc5c43)(C1)C2)OCC1CC1 [Example 19, Cyclopropylmethyl (3-(imidazo[4,5-d]pyrrolo[2,3-b]pyridin-1(6H)-yl)bicyclo[1.1.1]pentan-1-yl)carbamate]
23 nM |  | CN(C)S(=O)(=O)NC12CC(n3cnc4cnc5[nH]ccc5c43)(C1)C2 [Example 24, N-(3-(imidazo[4,5-d]pyrrolo[2,3-b]pyridin-1(6H)-yl)bicyclo[1.1.1]pentan-1-yl)-N′-dimethyl-1-sulfonamide]
20.2 nM | 291 nM | CCS(=O)(=O)NC12CC(n3cnc4cnc5[nH]ccc5c43)(C1)C2 [Example 27, N-(3-(imidazo[4,5-d]pyrrolo[2,3-b]pyridin-1(6H)-yl)bicyclo[1.1.1]pentan-1-yl)ethanesulfonamide]
25.5 nM | 226 nM | CC(C)S(=O)(=O)NC12CC(n3cnc4cnc5[nH]ccc5c43)(C1)C2 [Example 30, N-(3-(imidazo[4,5-d]pyrrolo[2,3-b]pyridin-1(6H)-yl)bicyclo[1.1.1]pentan-1-yl)propane-2-sulfonamide]
25.4 nM | 199 nM | CCCNC(=O)NC12CC(n3cnc4cnc5[nH]ccc5c43)(C1)C2 [Example 34, 1-(3-(Imidazo[4,5-d]pyrrolo[2,3-b]pyridin-1(6H)-yl)bicyclo[1.1.1]pentan-1-yl)-3-propylurea]
235 nM |  | O=C(NC1CC1)NC12CC(n3cnc4cnc5[nH]ccc5c43)(C1)C2 [Example 35, 1-Cyclopropyl-3-(3-(imidazo[4,5-d]pyrrolo[2,3-b]pyridin-1(6H)-yl)bicyclo[1.1.1]pentan-1-yl)urea]
49.5 nM |  | CC(C)CNC(=O)NC12CC(n3cnc4cnc5[nH]ccc5c43)(C1)C2 [Example 36, 1-(3-(Imidazo[4,5-d]pyrrolo[2,3-b]pyridin-1(6H)-yl)bicyclo[1.1.1]pentan-1-yl)-3-isobutylurea]
101 nM | 678 nM | O=C(NC12CC(n3cnc4cnc5[nH]ccc5c43)(C1)C2)N1CC(F)(F)C1 [Example 37, 3,3-Difluoro-N-(3-(imidazo[4,5-d]pyrrolo[2,3-b]pyridin-1(6H)-yl)bicyclo[1.1.1]pentan-1-yl)azetidine-1-carboxamide]
389 nM | 3300 nM | COC1CN(C(=O)NC23CC(n4cnc5cnc6[nH]ccc6c54)(C2)C3)C1 [Example 38, N-(3-(Imidazo[4,5-d]pyrrolo[2,3-b]pyridin-1(6H)-yl)bicyclo[1.1.1]pentan-1-yl)-3-methoxyazetidine-1-carboxamide]
49.4 nM | 355 nM | CC(C)(C#N)CNC(=O)NC12CC(n3cnc4cnc5[nH]ccc5c43)(C1)C2 [Example 40, 1-(2-Cyano-2-methylpropyl)-3-(3-(imidazo[4,5-d]pyrrolo[2,3-b]pyridin-1(6H)-yl)bicyclo[1.1.1]pentan-1-yl)urea]
142 nM | 965 nM | CC(C)(C#N)COC(=O)NC12CC(n3cnc4cnc5[nH]ccc5c43)(C1)C2 [Example 42, 2-Cyano-2-methylpropyl (3-(imidazo[4,5-d]pyrrolo[2,3-b]pyridin-1(6H)-yl)bicyclo[1.1.1]pentan-1-yl)carbamate]
15.6 nM | 223 nM | N#CCCNC(=O)NC12CC(n3cnc4cnc5[nH]ccc5c43)(C1)C2 [Example 43, 1-(2-Cyanoethyl)-3-(3-(imidazo[4,5-d]pyrrolo[2,3-b]pyridin-1(6H)-yl)bicyclo[1.1.1]pentan-1-yl)urea]
